# According to ChEMBL document CHEMBL1153483, “Synthesis and evaluation of novel substituted 5-hydroxycoumarin and pyranocoumarin derivatives exhibiting significant antiproliferative activity against breast cancer cell lines” (Bioorg Med Chem Lett, 2009):
# Experiments:
# MCF7 = assay: Antiproliferative activity against human MCF7 cells after 48 hrs by MTT assay; format: functional, cell-based
# MDA-MB-231 = assay: Antiproliferative activity against human MDA-MB-231 cells after 48 hrs by MTT assay; format: functional, cell-based
# [1] = Homo sapiens, MCF7, 48 h, read-out: IC50
# [2] = Homo sapiens, MDA-MB-231, 48 h, read-out: IC50
SMILES,IC50 (MCF7; [1]) [µM],IC50 (MDA-MB-231; mda-mb-231),IC50 (MCF7; mcf7),Activity (MCF7),Activity (MDA-MB-231),IC50 (MDA-MB-231; [2]) [µM]
Cc1cc(=O)oc2cc(I)c3c(c12)OC(C)(C)C=C3,30.7,Not Active,,,,
CCCc1cc(=O)oc2cc(-c3ccc(NC(=O)CCC(=O)O)cc3)c3c(c12)OC(C)(C)C=C3,,Not Active,Not Active,,,
Cc1cc(=O)oc2cc(I)cc(O)c12,18.3,Not Active,,,,
Cc1cc(=O)oc2cc(-c3ccc(NC(=O)CCC(=O)O)cc3)c3c(c12)OC(C)(C)C=C3,,Not Active,Not Active,,,
O=c1cc(-c2ccccc2)c2c(O)cc(-c3cc4ccccc4s3)cc2o1,7.6,,,Dose-dependent effect,Dose-dependent effect,10.6
O=c1cc(-c2ccccc2)c2c(O)cc(-c3cccc4c3Sc3ccccc3S4)cc2o1,14.2,,,Dose-dependent effect,Dose-dependent effect,9.3
CCCc1cc(=O)oc2cc(I)c3c(c12)OC(C)(C)C=C3,13.7,Not Active,,,,
CCCc1cc(=O)oc2cc(-c3cccc4c3Sc3ccccc3S4)cc(O)c12,14.4,,,Dose-dependent effect,Dose-dependent effect,7.9
CCCc1cc(=O)oc2cc(-c3ccc(NS(C)(=O)=O)cc3)c3c(c12)OC(C)(C)C=C3,3.3,,,Dose-dependent effect,Dose-dependent effect,27.2
CCCc1cc(=O)oc2cc(-c3cccc4c3Sc3ccccc3S4)c3c(c12)OC(C)(C)C=C3,> 100,Not Active,,,,
O=c1cc(-c2ccccc2)c2c(O)cc(I)cc2o1,25,Not Active,,,,
CC1(C)C=Cc2c(I)cc3oc(=O)cc(-c4ccccc4)c3c2O1,54.3,Not Active,,,,
CCCc1cc(=O)oc2cc(I)cc(O)c12,26.8,Not Active,,,,
CC1(C)C=Cc2c(-c3cc4ccccc4s3)cc3oc(=O)cc(-c4ccccc4)c3c2O1,77.7,Not Active,,,,
CCCc1cc(=O)oc2cc(-c3cc4ccccc4s3)c3c(c12)OC(C)(C)C=C3,22.8,Not Active,,,,
CC1(C)C=Cc2c(-c3cccc4c3Sc3ccccc3S4)cc3oc(=O)cc(-c4ccccc4)c3c2O1,7.2,,,Dose-dependent effect,Dose-dependent effect,33.6
CCCc1cc(=O)oc2cc(-c3cc4ccccc4s3)cc(O)c12,22.3,,,,,50
CC1(C)C=Cc2c(-c3ccc(NC(=O)CCC(=O)O)cc3)cc3oc(=O)cc(-c4ccccc4)c3c2O1,,Not Active,Not Active,,,
Cc1cc(=O)oc2cc(-c3ccc(NS(C)(=O)=O)cc3)c3c(c12)OC(C)(C)C=C3,6.5,,,Dose-dependent effect,Dose-dependent effect,61.2
Cc1cc(=O)oc2cc(-c3cc4ccccc4s3)c3c(c12)OC(C)(C)C=C3,25.4,,,,,> 100
CC1(C)C=Cc2c(-c3ccc(NS(C)(=O)=O)cc3)cc3oc(=O)cc(-c4ccccc4)c3c2O1,5.3,,,Dose-dependent effect,Dose-dependent effect,28.9
